In patent publication US20180016593A1, “HERBICIDE-RESISTANT SUNFLOWER PLANTS, POLYNUCLEOTIDES ENCODING HERBICIDE-RESISTANT ACETOHYDROXYACID SYNTHASE LARGE SUBUNIT PROTEINS, AND METHODS OF USE” (priority 2005, published 2018):
Read-outs that look alike come from different tables or passages of the source.

Legend:
Format in all cases: in vivo, Helianthus annuus
[1] = tested on: sunflower TH11 (Hybrid, A122T); conditions: 14 DAT
Method: (§1) A greenhouse study was conducted to quantify and contrast the imazapir sensivity of the mutants A122T and A205V in different genetic backgrounds at the whole plant level in sunflower. Seeds of the different sunflower lines that were used in this study were obtained under field conditions.
(§2) Seeds were sown in Petri dishes and, after germination, plantlets were transplanted to pots of 10 cm of diameter in a potting media consisting of equal parts of vermiculite, soil and sand. Plants were grown in a greenhouse under natural light conditions supplemented with 400 W sodium halide lamps to provide a 16 hrs daylength. Day/night temperatures were 25 and 20° C., respectively. At the V2 stage 10 plants of each genotype were randomly assigned to each treatment consisting of […] imazapir doses (0, 40, 80, 160, 240, 320, 400 and 480 g ai/ha), and a zero-time biomass determination. Experiment was arranged as a randomized block design with a full factorial (sunflower line×treatment) arrangement of treatments and 10 replications.
(§3) On the day of herbicide application ten plants of each genotype were cut at the cotyledonal node and dried at 60° C. for 48 hrs zero-time for dried weight determination.
(§4) Height was determined as the distance between the cotyledonal node and the apex of each plant. For root biomass determination, each plant was taken from the pot and the potting media was washed out from the roots. Above ground biomass data from each line were converted to biomass accumulation after application by subtracting the appropriate average zero-time biomass from each sample. Dry biomass data were converted to percentages of the untreated control plants within each line to allow direct comparisons between groups. […]

[2] = tested on: sunflower TH6 (Hybrid, A122T); conditions: 14 DAT
Method: as §1, §2, §3, §4

[3] = tested on: sunflower lines carrying the A122T mutation; conditions: A122T mean minus A205V mean, 14 DAT
Method: as §1, §2, §3, §4

SMILES: CC(C)C1(C)N=C(c2ncccc2C(=O)O)NC1=O (stereo not drawn) [imazapyr]
- Phytotoxicity Index ([1]; 0.5x (40 g ai/ha)): 0.4
- biomass accumulation (above ground dry weight) ([1]; 0.5x (40 g ai/ha)): 96.6 % of untreated plots
- plant height ([1]; 0.5x (40 g ai/ha)): 100.4 % of untreated plots
- root dry weight ([1]; 0.5x (40 g ai/ha)): 100 % of untreated plots
- Phytotoxicity Index ([1]; 1x (80 g ai/ha)): 0.4
- biomass accumulation (above ground dry weight) ([1]; 1x (80 g ai/ha)): 93.9 % of untreated plots
- plant height ([1]; 1x (80 g ai/ha)): 99.9 % of untreated plots
- root dry weight ([1]; 1x (80 g ai/ha)): 99.0 % of untreated plots
- Phytotoxicity Index ([1]; 2x (160 g ai/ha)): 0.4
- biomass accumulation (above ground dry weight) ([1]; 2x (160 g ai/ha)): 81.6 % of untreated plots
- plant height ([1]; 2x (160 g ai/ha)): 92.0 % of untreated plots
- root dry weight ([1]; 2x (160 g ai/ha)): 86.1 % of untreated plots
- Phytotoxicity Index ([1]; 3x (240 g ai/ha)): 0.5
- biomass accumulation (above ground dry weight) ([1]; 3x (240 g ai/ha)): 75.8 % of untreated plots
- plant height ([1]; 3x (240 g ai/ha)): 90.5 % of untreated plots
- root dry weight ([1]; 3x (240 g ai/ha)): 81.5 % of untreated plots
- Phytotoxicity Index ([1]; 4x (320 g ai/ha)): 1.0
- biomass accumulation (above ground dry weight) ([1]; 4x (320 g ai/ha)): 75.0 % of untreated plots
- plant height ([1]; 4x (320 g ai/ha)): 90.8 % of untreated plots
- root dry weight ([1]; 4x (320 g ai/ha)): 72.6 % of untreated plots
- Phytotoxicity Index ([1]; 5x (400 g ai/ha)): 2.0
- biomass accumulation (above ground dry weight) ([1]; 5x (400 g ai/ha)): 60.1 % of untreated plots
- plant height ([1]; 5x (400 g ai/ha)): 84.4 % of untreated plots
- root dry weight ([1]; 5x (400 g ai/ha)): 68.9 % of untreated plots
- Phytotoxicity Index ([1]; 6x (480 g ai/ha)): 2.5
- biomass accumulation (above ground dry weight) ([1]; 6x (480 g ai/ha)): 59.6 % of untreated plots
- plant height ([1]; 6x (480 g ai/ha)): 84.4 % of untreated plots
- root dry weight ([1]; 6x (480 g ai/ha)): 45.3 % of untreated plots
- Phytotoxicity Index ([2]; 0.5x (40 g ai/ha)): 0.5
- biomass accumulation (above ground dry weight) ([2]; 0.5x (40 g ai/ha)): 100 % of untreated plots
- plant height ([2]; 0.5x (40 g ai/ha)): 99.2 % of untreated plots
- root dry weight ([2]; 0.5x (40 g ai/ha)): 100 % of untreated plots
- Phytotoxicity Index ([2]; 1x (80 g ai/ha)): 0.5
- biomass accumulation (above ground dry weight) ([2]; 1x (80 g ai/ha)): 97.2 % of untreated plots
- plant height ([2]; 1x (80 g ai/ha)): 98.6 % of untreated plots
- root dry weight ([2]; 1x (80 g ai/ha)): 98.1 % of untreated plots
- Phytotoxicity Index ([2]; 2x (160 g ai/ha)): 0.5
- biomass accumulation (above ground dry weight) ([2]; 2x (160 g ai/ha)): 97.9 % of untreated plots
- plant height ([2]; 2x (160 g ai/ha)): 100.3 % of untreated plots
- root dry weight ([2]; 2x (160 g ai/ha)): 98.2 % of untreated plots
- Phytotoxicity Index ([2]; 3x (240 g ai/ha)): 0.5
- biomass accumulation (above ground dry weight) ([2]; 3x (240 g ai/ha)): 98.2 % of untreated plots
- plant height ([2]; 3x (240 g ai/ha)): 99.8 % of untreated plots
- root dry weight ([2]; 3x (240 g ai/ha)): 79.3 % of untreated plots
- Phytotoxicity Index ([2]; 4x (320 g ai/ha)): 0.5
- biomass accumulation (above ground dry weight) ([2]; 4x (320 g ai/ha)): 97.8 % of untreated plots
- plant height ([2]; 4x (320 g ai/ha)): 101.0 % of untreated plots
- root dry weight ([2]; 4x (320 g ai/ha)): 78.4 % of untreated plots
- Phytotoxicity Index ([2]; 5x (400 g ai/ha)): 0.5
- biomass accumulation (above ground dry weight) ([2]; 5x (400 g ai/ha)): 85.1 % of untreated plots
- plant height ([2]; 5x (400 g ai/ha)): 87.0 % of untreated plots
- root dry weight ([2]; 5x (400 g ai/ha)): 85.8 % of untreated plots
- Phytotoxicity Index ([2]; 6x (480 g ai/ha)): 0.5
- biomass accumulation (above ground dry weight) ([2]; 6x (480 g ai/ha)): 79.5 % of untreated plots
- plant height ([2]; 6x (480 g ai/ha)): 79.6 % of untreated plots
- root dry weight ([2]; 6x (480 g ai/ha)): 57.3 % of untreated plots
- biomass accumulation, Dif A122T-A205V ([3]; 0.5x (40 g ai/ha)): 4.3 % of untreated plots
- plant height, Dif A122T-A205V ([3]; 0.5x (40 g ai/ha)): 4.9 % of untreated plots
- root dry weight, Dif with A122T-A205V ([3]; 0.5x (40 g ai/ha)): 12.7 % of untreated plots
- biomass accumulation, Dif A122T-A205V ([3]; 1x (80 g ai/ha)): 14.5 % of untreated plots
- plant height, Dif A122T-A205V ([3]; 1x (80 g ai/ha)): 9.4 % of untreated plots
- root dry weight, Dif with A122T-A205V ([3]; 1x (80 g ai/ha)): 26.7 % of untreated plots
- biomass accumulation, Dif A122T-A205V ([3]; 2x (160 g ai/ha)): 33.2 % of untreated plots
- plant height, Dif A122T-A205V ([3]; 2x (160 g ai/ha)): 28.0 % of untreated plots
- root dry weight, Dif with A122T-A205V ([3]; 2x (160 g ai/ha)): 43.6 % of untreated plots
- biomass accumulation, Dif A122T-A205V ([3]; 3x (240 g ai/ha)): 45.3 % of untreated plots
